According to publication PMC10264579 (Frontiers in Pharmacology, 2023):

Experiment: In vitro skin permeation study in Franz diffusion cells
Assay type: in vitro ADME, human
Settings: all formulations
Excerpt: The steady-state flux was estimated from the slope of the linear portion of the plot of cumulative mass in the acceptor phase over time.

lag time, KET: below 0
Structure (SMILES): CC(C(=O)O)c1cccc(C(=O)c2ccccc2)c1 (stereo not shown) [KET, ketoprofen]
